≈ marks a conversion by molar mass, not a printed value. Where a SMILES comes first, the peptide text is derived from it.
Legend:
[1] = tested on: P. aeruginosa (ATCC CRM 9027) biofilm; format: cell-based, Pseudomonas aeruginosa; details: ATCC CRM 9027, 24 h
Experimental: (§1) The anti-biofilm activities of the peptides against S. aureus (ATCC 6538), MRSA (NCTC 12493), E. faecalis (NCTC 12493), E. coli (ATCC CRM 8739), K. pneumoniae (ATCC 43816), and P. aeruginosa (ATCC CRM 9027) were evaluated.
(§2) The bacteria were inoculated in a different medium (Gram-positive bacteria were in TSB and Gram-negative bacteria were in LB) overnight, and the subculture was conducted in the same medium. When the bacteria reached a specific density, 100 µL of the dilution was added to each well of the 96-well microplate. Then 1 µL of peptide at a series of concentrations, the same concentration in the antimicrobial assay, were added into the well together with the bacteria. The plates were put into a moist shaking incubator with a speed of 200 rpm, and the temperature was set at 37 ℃. After a 24-h incubation, the liquid in the wells was aspirated, and each was washed twice by 100 µL PBS. One hundred µL of methanol were added into each well to stabilise the biofilm. After air-drying, 100 µL crystal violet was used to dye the biofilm, and they were dissolved in the 100 µL glacial acidic acid after drying. The solutions were transferred to a new microplate, and the absorbance of each well was tested by a microplate reader (EL808, Biolise BioTek Winooski, Minneapolis, MN, USA) at 595 nm wavelength. MBIC was the minimum concentration of the peptide showing no biofilm formation.
(§3) The bacteria were inoculated in a different medium (Gram-positive bacteria were in TSB and Gram-negative bacteria were in LB) overnight, and the subculture was conducted in the same medium. When the bacteria reached a specific density, 100 µL of the dilution was added to each well of the 96-well microplates. The plates were put into a moist shaking incubator with a speed of 200 rpm and the temperature was 37 ℃. After a 24 h incubation, the liquid in the wells was aspirated and they were washed twice by 100 µL PBS of each well. The peptides with the same concentrations were diluted in the corresponding medium and 100 µL were added into each well. After a 24-h incubation, the liquid in the wells was aspirated and they were washed twice by 100 µL PBS. One hundred µL of methanol were added into the wells to stabilise the biofilms. After being air-dried, 100 µL crystal violet was used to dye the biofilm, and they were dissolved in the 100 µL glacial acidic acid after drying. The solutions were transferred to a new microplate, and the absorbance of each well was tested by a microplate reader (EL808, Biolise BioTek Winooski, Minneapolis, USA) at 595 nm wavelength.

E. coli (ATCC CRM 8739) = format: cell-based, Escherichia coli
Experimental: The method of antimicrobial assay is based on the Methods for Dilution Antimicrobial Susceptibility Tests for Bacteria that Grow Aerobically from the Clinical and Laboratory Standards Institute (CLSI).The antimicrobial activities of peptides were evaluated against Gram-positive bacteria S. aureus (ATCC 6538), MRSA (NCTC 12493), E. faecalis (NCTC 12493), Gram-negative bacteria E. coli (ATCC CRM 8739), K. pneumoniae (ATCC 43816), P. aeruginosa (ATCC CRM 9027), yeast C. albicans (ATCC CRM 10231) and clinical isolates MRSA (B042 V2E1 A), E. coli (ATCC BAA-2340), K. pneumoniae (ATCC BAA-1705), P. aeruginosa (B004 V2S2 B).
At the first stage of the assay, 20 μL bacteria were cultured in 100 mL Mueller Hinton Broth (MHB) or Yeast Extract–Peptone–Dextrose broth (YPD-B), respectively, and was incubated overnight. Then, microorganisms were subcultured in 20 mL fresh MHB or YPD-B to achieve cultures in the logarithmic phase (1 × 10^8 CFU/mL), which can be verified by optical density (OD) (The OD of Gram-positive bacteria is 0.23, OD of Gram-negative bacteria is 0.4, and OD of yeast is 0.15), and viable cell counts. Then, the medium was used to dilute the cultures to specific cell densities (Gram-negative and Gram-positive bacteria: 5 × 10^5 CFU/mL; yeast: 1 × 10^6 CFU/mL), which were the final concentrations of bacterial suspensions used in the assay. The peptides were dissolved in DMSO to reach a final concentration of 512 µM. A series of two-fold dilutions ranging from 512 µM to 1 µM were dosed in the 96-well plates.
Antimicrobial assays were conducted in 96-well plates, which were divided into five groups, including a negative control group (PBS), a positive control group (20 μg/mL norfloxacin for bacteria and 10 μg/mL amphotericin B for yeast), vehicle control (1% DMSO), blank control (MHB or YPD-B), and a peptide group. Each microorganism had five repetitions, and each well contained 1 µL corresponding solution and 99 µL culture. After incubation at 37 °C overnight, the absorbance of each well was tested by a microplate reader (EL808, Biolise BioTek Winooski, Minneapolis, USA) under a 550 nm wavelength. The MIC is the lowest concentration at which no bacterial growth can be observed.
The next day, 10 µL of every clear well was taken out to be cultured on a Mueller Hinton Agar (MHA) plate and incubated at 37 °C for 16–20 h. The MBC is the lowest concentration without any bacterial colonies, which means at this concentration, the peptide reduces the viability of the pathogen by more than 99.9%.

[2] = tested on: E. coli (ATCC CRM 8739) biofilm; format: cell-based, Escherichia coli; details: ATCC CRM 8739, 24 h
Experimental: as §1, §2, §3

[3] = tested on: horse red cells (defibrinated horse blood); test: Haemolysis assay; format: cell-based; details: 2% (v/v) horse red cell suspension mixed 1:1 with peptide in PBS, 37 ℃ 2 h, absorbance 570 nm, 0.1% Triton X-100 positive control; nine replicates from three independent tests
Experimental: The haemolysis assay was conducted on defibrinated horse blood (TCS Biosciences Ltd., Buckingham, UK), which was washed by PBS in advance. The peptides were dissolved in PBS to the concentration of 1024 μM, and a series of two-fold dilutions was made by PBS as well. A volume of different concentrations of 120 μL peptide solutions were mixed with the same volume of 2% (v/v) of horse red cell suspension gently in a 1.5 mL tube, and the complex was incubated at 37 ℃ for 2 h. PBS and 0.1% Triton X-100 with the same volume were used as the negative and positive controls, respectively. Each group had three replicates. After the incubation, 100 μL supernatant of each tube was aspirated into a new 96-well plate, and their absorbances were analysed by a microplate reader (EL808, Biolise BioTek Winooski, Minneapolis, USA) at a wavelength of 570 nm. The equation to calculate the haemolysis of the peptides is shown below. (2) […]=(A−An)/(Ap−An)×100%
A represents the absorbance of each well in the sample groups. An represents the average absorbance of the wells in the negative control group. Ap represents the average absorbance of the wells in the positive control group.

Row | MIC (E. coli (ATCC CRM 8739)) [µM] | Structure (SMILES) | MBEC [1] [µM] | MBIC [1] [µM] | MBC (E. coli (ATCC CRM 8739)) [µM] | MBEC [2] [µM] | MBIC [2] [µM] | HC50 [3]
1 | >512 | CC[C@H](C)[C@H](NC(=O)[C@@H](NC(=O)CN)C(C)C)C(=O)N[C@H](C(=O)N[C@@H](CCCCN)C(=O)N[C@H](C(=O)N[C@@H](CC(C)C)C(N)=O)[C@@H](C)O)[C@@H](C)CC [Peptide 7-tB2U-K] (H-GVIIKTL-NH2) | >512 | >512 | >512 | >512 | >512 | 11,008 μM
2 | 2 (≈ 3.9 µg/mL) | CC[C@H](C)[C@H](NC(=O)[C@@H](NC(=O)CN)C(C)C)C(=O)N[C@H](C(=O)N[C@@H](CCCCN)C(=O)N[C@@H](CCCCN)C(=O)N[C@@H](CC(C)C)C(=O)N[C@@H](CCCCN)C(=O)NCC(=O)N[C@@H](C)C(=O)N[C@@H](C)C(=O)N[C@@H](CCCCN)C(=O)N[C@@H](CCCCN)C(=O)N[C@H](C(=O)N[C@@H](C)C(=O)N[C@@H](C)C(=O)N[C@@H](CCCCN)C(=O)N[C@@H](CC(C)C)C(=O)N[C@@H](CC(C)C)C(N)=O)C(C)C)[C@@H](C)CC [tB2U-6K] (H-GVIIKKLKGAAKKVAAKLL-NH2) | > 512 | 32 | 2 (≈ 3.9 µg/mL) | > 512 | 2 | 6506 µM
3 | >512 | CC[C@H](C)[C@H](NC(=O)[C@@H](NC(=O)CN)C(C)C)C(=O)N[C@H](C(=O)N[C@@H](CCCCN)C(=O)N[C@H](C(=O)N[C@@H](CC(C)C)C(=O)N[C@@H](CCCCN)C(=O)NCC(=O)N[C@@H](C)C(=O)N[C@@H](C)C(=O)N[C@@H](CCCCN)C(=O)N[C@H](C(=O)N[C@H](C(N)=O)C(C)C)[C@@H](C)O)[C@@H](C)O)[C@@H](C)CC [Peptide 14-tB2U-K] (H-GVIIKTLKGAAKTV-NH2) | >512 | >512 | >512 | >512 | >512 | 10,834 μM
4 | >512 | CC[C@H](C)[C@H](NC(=O)[C@@H](NC(=O)CN)C(C)C)C(=O)N[C@H](C(=O)N[C@@H](CC(=O)O)C(=O)N[C@H](C(=O)N[C@@H](CC(C)C)C(=O)N[C@@H](CCCCN)C(=O)NCC(=O)N[C@@H](C)C(=O)N[C@@H](C)C(=O)N[C@@H](CCCCN)C(=O)N[C@H](C(=O)N[C@H](C(=O)N[C@@H](C)C(=O)N[C@@H](C)C(=O)N[C@@H](CCC(=O)O)C(=O)N[C@@H](CC(C)C)C(=O)N[C@@H](CC(C)C)C(N)=O)C(C)C)[C@@H](C)O)[C@@H](C)O)[C@@H](C)CC [tB2U-α] (H-GVIIDTLKGAAKTVAAELL-NH2) | >512 | >512 | >512 | >512 | >512 | 15,609 μM
5 | 8 (≈ 15.2 µg/mL) | CC[C@H](C)[C@H](NC(=O)[C@@H](NC(=O)CN)C(C)C)C(=O)N[C@H](C(=O)N[C@@H](CCCCN)C(=O)N[C@H](C(=O)N[C@@H](CC(C)C)C(=O)N[C@@H](CCCCN)C(=O)NCC(=O)N[C@@H](C)C(=O)N[C@@H](C)C(=O)N[C@@H](CCCCN)C(=O)N[C@H](C(=O)N[C@H](C(=O)N[C@@H](C)C(=O)N[C@@H](C)C(=O)N[C@@H](CCCCN)C(=O)N[C@@H](CC(C)C)C(=O)N[C@@H](CC(C)C)C(N)=O)C(C)C)[C@@H](C)O)[C@@H](C)O)[C@@H](C)CC [tB2U-K] (H-GVIIKTLKGAAKTVAAKLL-NH2) | > 512 | 128 | 8 (≈ 15.2 µg/mL) | > 512 | 16 | 3056 µM
6 | 128 (≈ 304 µg/mL) | CC[C@H](C)[C@H](NC(=O)[C@@H](NC(=O)CN)C(C)C)C(=O)N[C@H](C(=O)N[C@@H](CC(=O)O)C(=O)N[C@H](C(=O)N[C@@H](CC(C)C)C(=O)N[C@@H](CCCCN)C(=O)NCC(=O)N[C@@H](C)C(=O)N[C@@H](C)C(=O)N[C@@H](CCCCN)C(=O)N[C@H](C(=O)N[C@H](C(=O)N[C@@H](C)C(=O)N[C@@H](C)C(=O)N[C@@H](CCC(=O)O)C(=O)N[C@@H](CC(C)C)C(=O)N[C@@H](CC(C)C)C(=O)N[C@@H](CCCNC(=N)N)C(=O)N[C@@H](CCCCN)C(=O)N[C@@H](C)C(=O)N[C@@H](Cc1c[nH]cn1)C(N)=O)C(C)C)[C@@H](C)O)[C@@H](C)O)[C@@H](C)CC [tB2U] (H-GVIIDTLKGAAKTVAAELLRKAH-NH2) | >512 | >512 | 128 (≈ 304 µg/mL) | >512 | >512 | 16,393 μM

Source: paper PMC8388802, “Study on the Structure-Activity Relationship of an Antimicrobial Peptide, Brevinin-2GUb, from the Skin Secretion of Hylarana guentheri” (Antibiotics, 2021)
